According to US5741643A, “Oligonucleotide clamps” (Lynx Therapeutics, Inc., priority 1995, dated 1998):

Legend:
[1] = test system: target polynucleotide 5'-[…]-3' (pol and nef genes of HIV); experiment: Melting temperature of oligonucleotide clamp/target polynucleotide complex (260 nm absorption v. temperature curve); format: binding; settings: half maximum of the 260 nm absorption v. temperature curve
Procedure: Preferably, stability of oligonucleotide clamp/target polynucleotide complexes are determined by way of melting, or strand dissociation, curves. The temperature of fifty percent strand dissociation is taken as the melting temperature, Tm, which, in turn, provides a convenient measure of stability. Tm measurements are typically carried out in a saline solution at neutral pH with target and clamp concentrations at between about 1.0-2.0 μM. Typical conditions are as follows: 150 mM NaCl and 10 mM MgCl2 in a 10 mM sodium phosphate buffer (pH 7.0) or in a 10 mM Tris-HCl buffer (pH 7.0); or like conditions. Data for melting curves are accumulated by heating a sample of the oligonucleotide clamp/target polynucleotide complex from room temperature to about 85°-90° C. As the temperature of the sample increases, absorbance of 260 nm light is monitored at 1° C. intervals, e.g. using a Cary (Australia) model 1E or a Hewlett-Packard (Palo Alto, Calif.) model HP 8459 UV/VIS spectrophotometer and model HP 89100A temperature controller, or like instruments.
The oligonucleotides and oligonucleotide clamps listed in the Table I below were synthesized in accordance with Example 1 for specific binding to the following single stranded or double stranded target polynucleotides:
The melting temperature of the following compounds were determined by computing the half maximum of the 260 nm absorption v. temperature curve, as described above: DL015:39.0° C.; DL014: 58° C.; DL013: 68.0° C.; DL021: 67.5° C.; DL022: 67.5° C.; and control (two unconnected oligonucleotides without binding moieties having sequences: 3'-TTTTCTTTTCCCCCCT-5' and 5'-TTTTC^Me TTTT(C^Me)6-3'): 32.0° C.

ATH8 cells = experiment: Toxicity to ATH8 cells in the ATH8 cell assay; format: cell-based; settings: 2 μM and 8 μM
Procedure: (§1) Each of the compounds of Table I were tested in an ATH8 cell assay to assess the inhibition of the cytopathic effects of HIV infection on the ATH8 cells. The ATH8 assay is described in the following reference: Matsukura, pages 285-304 in Antisense RNA and DNA (Wiley-Liss, New York, 1992).
(§2) The cytopathic effect examined in the assay was the lytic effect of HIV and/or drug on the ATH8 cells. A measure of the degree of viral activity is the degree to which cells are lysed at the end of a given time period in culture. Protection against lysis is measured by the size of pellet formed after cells are harvested from culture and centrifuged, as described in the references cited above.
(§3) Curves 1 and 2 illustrate results from positive and negative controls, i.e. curve 1 illustrates the results for uninfected ATH8 cells without drug (negative control) and curve 2 illustrates the results for infected ATH8 cells without drug (positive control). Curves 3 and 4 illustrate results from cultures containing 8 μM of oligonucleotide clamp in infected and uninfected ATH8 cells, respectively. Curves 5 and 6 illustrate results from cultures containing 2 μM of oligonucleotide clamp in infected and uninfected ATH8 cells, respectively.

[2] = test system: HIV (infected ATH8 cells); experiment: ATH8 cell assay: inhibition of the cytopathic (lytic) effects of HIV infection on ATH8 cells; format: cell-based; settings: 2 μM and 8 μM
Procedure: as §1, §2, §3

| Substance | melting temperature [1] | toxicity (FIG. 3), in words (ATH8 cells) | change in pellet size versus time (FIG. 3), effect in words [2] |
| --- | --- | --- | --- |
| 5'-CACTTTTCTTTTGGGGGGTCACACTCCCCCCTTTTCTTTTAC-Chol [DL014] | 58 °C | without toxicity | clear and positive effect at both concentrations |
| 5'-CACTTTTCTTTTGGGGGGTCACACTCCCCCCTTTTCTTTTAC (chemistry not given here) [DL015] | 39.0 °C |  |  |
| 5'-Chol-TTTTCTTTTCACACTTTTCTTTTGGGGGGTCACACTCCCCCC-Chol [DL021] | 67.5 °C |  |  |
| 5'-Chol-CACTTTTCTTTTCCCCCCTCACACACTCCCCCCTTTTCTTTTAC-Chol [DL022] | 67.5 °C |  |  |
| 5'-Chol-CACTTTTCTTTTGGGGGGTCACACTCCCCCCTTTTCTTTTAC-Chol [DL013] | 68.0 °C |  |  |
